Test results taken from the NIST ThermoML archive (doi:10.1016/j.jct.2004.07.027).
± gives the expanded uncertainty stated by the source.

Test: mn = molality of the nth substance listed, in mol/kg
Settings: 350 kPa, Liquid, Extra sensitive DSC

C1COCCOCCOCCOCCOCCO1 [1,4,7,10,13,16-hexaoxacyclooctadecane] + O
Settings	apparent molar heat capacity [J/K/mol]
338.15 K, m1 = 0.01001	925.2 ± 8.3
338.15 K, m1 = 0.02001	920.5 ± 4.1
338.15 K, m1 = 0.03002	920.9 ± 2.7
338.15 K, m1 = 0.0401	927.9 ± 2.1
338.15 K, m1 = 0.04995	928.1 ± 1.7
338.15 K, m1 = 0.06015	927.8 ± 1.5
338.15 K, m1 = 0.08002	927.2 ± 1.1
338.15 K, m1 = 0.1224	926.44 ± 0.7
338.15 K, m1 = 0.1472	926.89 ± 0.67
338.15 K, m1 = 0.1935	925.61 ± 0.58
338.15 K, m1 = 0.2925	924.48 ± 0.4
343.15 K, m1 = 0.01001	932.5 ± 8.4
343.15 K, m1 = 0.02001	929.1 ± 4.1
343.15 K, m1 = 0.03002	929.3 ± 2.7
343.15 K, m1 = 0.0401	936.1 ± 2.1
343.15 K, m1 = 0.04995	936.3 ± 1.7
343.15 K, m1 = 0.06015	936.3 ± 1.5
343.15 K, m1 = 0.08002	935.5 ± 1.1
343.15 K, m1 = 0.1224	934.88 ± 0.7
343.15 K, m1 = 0.1472	935.27 ± 0.7
343.15 K, m1 = 0.1935	934.03 ± 0.58
343.15 K, m1 = 0.2925	932.93 ± 0.39
348.15 K, m1 = 0.01001	939.9 ± 8.4
348.15 K, m1 = 0.02001	936.3 ± 4.1
348.15 K, m1 = 0.03002	936.4 ± 2.7
348.15 K, m1 = 0.0401	942.7 ± 2.1
348.15 K, m1 = 0.04995	943.1 ± 1.7
348.15 K, m1 = 0.06015	943.5 ± 1.4
348.15 K, m1 = 0.08002	942.4 ± 1
348.15 K, m1 = 0.1224	941.88 ± 0.69
348.15 K, m1 = 0.1472	942.17 ± 0.71
348.15 K, m1 = 0.1935	941.03 ± 0.58
348.15 K, m1 = 0.2925	939.88 ± 0.4
353.15 K, m1 = 0.01001	946.2 ± 8.2
353.15 K, m1 = 0.02001	942 ± 4.1
353.15 K, m1 = 0.03002	942.4 ± 2.8
353.15 K, m1 = 0.0401	949 ± 2.1
353.15 K, m1 = 0.04995	949.2 ± 1.7
353.15 K, m1 = 0.06015	949 ± 1.4
353.15 K, m1 = 0.08002	948.1 ± 1
353.15 K, m1 = 0.1224	947.6 ± 0.69
353.15 K, m1 = 0.1472	947.8 ± 0.7
353.15 K, m1 = 0.1935	946.84 ± 0.58
353.15 K, m1 = 0.2925	945.53 ± 0.39
358.15 K, m1 = 0.01001	951.4 ± 8.2
358.15 K, m1 = 0.02001	946.9 ± 4.1
358.15 K, m1 = 0.03002	947.4 ± 2.8
358.15 K, m1 = 0.0401	954.1 ± 2.1
358.15 K, m1 = 0.04995	954 ± 1.7
358.15 K, m1 = 0.06015	953.6 ± 1.4
358.15 K, m1 = 0.08002	952.9 ± 1
358.15 K, m1 = 0.1224	952.29 ± 0.69
358.15 K, m1 = 0.1472	952.42 ± 0.69
358.15 K, m1 = 0.1935	951.41 ± 0.55
358.15 K, m1 = 0.2925	949.82 ± 0.37
363.15 K, m1 = 0.01001	956.3 ± 8.5
363.15 K, m1 = 0.02001	950.6 ± 4.1
363.15 K, m1 = 0.03002	951.5 ± 2.7
363.15 K, m1 = 0.0401	957.7 ± 2.1
363.15 K, m1 = 0.04995	957.7 ± 1.7
363.15 K, m1 = 0.06015	957.3 ± 1.4
363.15 K, m1 = 0.08002	956.5 ± 1.1
363.15 K, m1 = 0.1224	955.71 ± 0.72
363.15 K, m1 = 0.1472	955.85 ± 0.68
363.15 K, m1 = 0.1935	954.72 ± 0.51
363.15 K, m1 = 0.2925	952.93 ± 0.35
368.15 K, m1 = 0.01001	958.6 ± 8.2
368.15 K, m1 = 0.02001	953.5 ± 4.1
368.15 K, m1 = 0.03002	954.4 ± 2.7
368.15 K, m1 = 0.0401	959.7 ± 2.1
368.15 K, m1 = 0.04995	960.2 ± 1.6
368.15 K, m1 = 0.06015	959.9 ± 1.4
368.15 K, m1 = 0.08002	959.2 ± 1.1
368.15 K, m1 = 0.1224	958.26 ± 0.7
368.15 K, m1 = 0.1472	958.12 ± 0.65
368.15 K, m1 = 0.1935	957 ± 0.5
368.15 K, m1 = 0.2925	954.88 ± 0.34
373.15 K, m1 = 0.01001	959.1 ± 8.1
373.15 K, m1 = 0.02001	955.6 ± 4.1
373.15 K, m1 = 0.03002	955.9 ± 2.7
373.15 K, m1 = 0.0401	960.6 ± 2
373.15 K, m1 = 0.04995	961.7 ± 1.6
373.15 K, m1 = 0.06015	961.5 ± 1.4
373.15 K, m1 = 0.08002	960.8 ± 1
373.15 K, m1 = 0.1224	959.82 ± 0.7
373.15 K, m1 = 0.1472	959.52 ± 0.66
373.15 K, m1 = 0.1935	958.21 ± 0.49
373.15 K, m1 = 0.2925	955.86 ± 0.33
378.15 K, m1 = 0.01001	960.1 ± 8
378.15 K, m1 = 0.02001	955.9 ± 4.1
378.15 K, m1 = 0.03002	957.7 ± 2.8
378.15 K, m1 = 0.0401	960.8 ± 2
378.15 K, m1 = 0.04995	962.6 ± 1.6
378.15 K, m1 = 0.06015	962.6 ± 1.4
378.15 K, m1 = 0.08002	961.5 ± 1
378.15 K, m1 = 0.1224	960.5 ± 0.69
378.15 K, m1 = 0.1472	960.13 ± 0.68
378.15 K, m1 = 0.1935	958.64 ± 0.5
378.15 K, m1 = 0.2925	956.01 ± 0.34
383.15 K, m1 = 0.01001	960.3 ± 7.9
383.15 K, m1 = 0.02001	956.3 ± 4.2
383.15 K, m1 = 0.03002	959.2 ± 2.8
383.15 K, m1 = 0.0401	959.6 ± 2
383.15 K, m1 = 0.04995	962.7 ± 1.7
383.15 K, m1 = 0.06015	962.5 ± 1.4
383.15 K, m1 = 0.08002	961.5 ± 1
383.15 K, m1 = 0.1224	960.35 ± 0.68
383.15 K, m1 = 0.1472	959.95 ± 0.66
383.15 K, m1 = 0.1935	958.25 ± 0.5
383.15 K, m1 = 0.2925	955.31 ± 0.34
388.15 K, m1 = 0.01001	958.8 ± 8.2
388.15 K, m1 = 0.02001	955.7 ± 4.2
388.15 K, m1 = 0.03002	959.9 ± 2.8
388.15 K, m1 = 0.0401	956.7 ± 2.1
388.15 K, m1 = 0.04995	962.3 ± 1.8
388.15 K, m1 = 0.06015	961.8 ± 1.5
388.15 K, m1 = 0.08002	960.8 ± 1.1
388.15 K, m1 = 0.1224	959.65 ± 0.7
388.15 K, m1 = 0.1472	959.06 ± 0.7
388.15 K, m1 = 0.1935	957.22 ± 0.52
388.15 K, m1 = 0.2925	954.17 ± 0.35
393.15 K, m1 = 0.01001	958.8 ± 9.7
393.15 K, m1 = 0.02001	954.7 ± 4.2
393.15 K, m1 = 0.03002	967.1 ± 2.8
393.15 K, m1 = 0.0401	951.9 ± 2.4
393.15 K, m1 = 0.04995	961.7 ± 2.2
393.15 K, m1 = 0.06015	961.2 ± 1.8
393.15 K, m1 = 0.08002	960.2 ± 1.3
393.15 K, m1 = 0.1224	958.56 ± 0.75
393.15 K, m1 = 0.1472	957.61 ± 0.83
393.15 K, m1 = 0.1935	955.72 ± 0.55
393.15 K, m1 = 0.2925	952.32 ± 0.38
